Series [1] is described as follows: Cytotoxicity assay (LDH release), WI-L2. The settings on record: human. Type of series: cell-based. As for the experimental part:
(§1) Cytotoxicity assays. WI-L2 human B-lymphocyte line, HAAE-1 human abdominal aortic endothelial line, MH—S murine alveolar macrophage line, and J774A.1 murine tissue macrophage line were obtained from the ATCC. Human aortic endothelial cells (HAEC) and human vascular smooth muscle cells (VSMS) were obtained from Cambrex Bio Science. Jurkat E6-1T-lymphocytes were kindly provided by Dr. J. Kaye (The Scripps Research Institute). Cells were cultured in ATCC-recommended media with 10% fetal calf serum. Cells were incubated in a controlled atmosphere at 37° C., with 5 or 7% CO2. For lactate dehydrogenase (LDH) release assays, adherent cells were harvested either by addition of 0.05% trypsin/EDTA or by scraping. The cells obtained were seeded onto 96-well microtiter plates (25,000 cells/well) and allowed to recover for 24-48 h. […] Cytotoxicity was then determined by measuring lactate dehydrogenase (LDH) release from cells in culture. […] 100% Cytotoxicity was defined as the maximum amount of LDH released by dead cells as shown by trypan blue exclusion, or the highest amount of LDH detected upon lysis of cells by 0.9% Triton X-100. The IC50 values were determined by comparison of the raw duplicate data for concentration versus cytotoxicity (%) to non-linear regression analysis (Hill plot) using Graphpad v3.0 software for Macintosh. […]

Series [2] in a line: Cytotoxicity assay (LDH release), Jurkat. Type of series: cell-based. To be noted: human. As for the experimental part:
as §1

Series [3] is described as follows: Cytotoxicity assay (LDH release), HAEC. Type of series: cell-based. To be noted: human, 0-100 μM. The procedure: as §1
Series [4] is described as follows: Cytotoxicity assay (LDH release), VSMC. Type of series: cell-based. To be noted: human, 0-100 μM. As for the experimental part:
as §1

For a further series, the target named is LDL / apoB-100 (Homo sapiens, UniProt P04114). Description: Circular dichroism of LDL secondary structure. Type of series: biochemical. The settings on record: LDL 100 μg/ml, compound 10 μM, PBS pH 7.4, 37° C., up to 48 h; for random coil of LDL after incubation: native LDL 27±2%; for α helical structure of LDL after incubation (loss of secondary structure): native LDL ~40±2%.

Series [5] in a line: Cytotoxicity assay (LDH release), J774A.1. Type of series: cell-based, murine. To be noted: mouse, J774A.1 cells, 0-100 μM. As for the experimental part:
as §1

Series [6] in a line: Cytotoxicity assay (LDH release), MH-S. Type of series: cell-based, murine. To be noted: mouse, MH-S cells, 0-100 μM. The procedure:
as §1

A short description of series [7]: Decrease of extractable 5a in stored plasma. The settings on record: stored human plasma, preliminary investigations. Type of series: in vitro ADME. An excerpt:
The combined organic fractions were evaporated in vacuo.

The structures appear in SMILES notation.

Chain of LDL / apoB-100 (P04114 28-4563): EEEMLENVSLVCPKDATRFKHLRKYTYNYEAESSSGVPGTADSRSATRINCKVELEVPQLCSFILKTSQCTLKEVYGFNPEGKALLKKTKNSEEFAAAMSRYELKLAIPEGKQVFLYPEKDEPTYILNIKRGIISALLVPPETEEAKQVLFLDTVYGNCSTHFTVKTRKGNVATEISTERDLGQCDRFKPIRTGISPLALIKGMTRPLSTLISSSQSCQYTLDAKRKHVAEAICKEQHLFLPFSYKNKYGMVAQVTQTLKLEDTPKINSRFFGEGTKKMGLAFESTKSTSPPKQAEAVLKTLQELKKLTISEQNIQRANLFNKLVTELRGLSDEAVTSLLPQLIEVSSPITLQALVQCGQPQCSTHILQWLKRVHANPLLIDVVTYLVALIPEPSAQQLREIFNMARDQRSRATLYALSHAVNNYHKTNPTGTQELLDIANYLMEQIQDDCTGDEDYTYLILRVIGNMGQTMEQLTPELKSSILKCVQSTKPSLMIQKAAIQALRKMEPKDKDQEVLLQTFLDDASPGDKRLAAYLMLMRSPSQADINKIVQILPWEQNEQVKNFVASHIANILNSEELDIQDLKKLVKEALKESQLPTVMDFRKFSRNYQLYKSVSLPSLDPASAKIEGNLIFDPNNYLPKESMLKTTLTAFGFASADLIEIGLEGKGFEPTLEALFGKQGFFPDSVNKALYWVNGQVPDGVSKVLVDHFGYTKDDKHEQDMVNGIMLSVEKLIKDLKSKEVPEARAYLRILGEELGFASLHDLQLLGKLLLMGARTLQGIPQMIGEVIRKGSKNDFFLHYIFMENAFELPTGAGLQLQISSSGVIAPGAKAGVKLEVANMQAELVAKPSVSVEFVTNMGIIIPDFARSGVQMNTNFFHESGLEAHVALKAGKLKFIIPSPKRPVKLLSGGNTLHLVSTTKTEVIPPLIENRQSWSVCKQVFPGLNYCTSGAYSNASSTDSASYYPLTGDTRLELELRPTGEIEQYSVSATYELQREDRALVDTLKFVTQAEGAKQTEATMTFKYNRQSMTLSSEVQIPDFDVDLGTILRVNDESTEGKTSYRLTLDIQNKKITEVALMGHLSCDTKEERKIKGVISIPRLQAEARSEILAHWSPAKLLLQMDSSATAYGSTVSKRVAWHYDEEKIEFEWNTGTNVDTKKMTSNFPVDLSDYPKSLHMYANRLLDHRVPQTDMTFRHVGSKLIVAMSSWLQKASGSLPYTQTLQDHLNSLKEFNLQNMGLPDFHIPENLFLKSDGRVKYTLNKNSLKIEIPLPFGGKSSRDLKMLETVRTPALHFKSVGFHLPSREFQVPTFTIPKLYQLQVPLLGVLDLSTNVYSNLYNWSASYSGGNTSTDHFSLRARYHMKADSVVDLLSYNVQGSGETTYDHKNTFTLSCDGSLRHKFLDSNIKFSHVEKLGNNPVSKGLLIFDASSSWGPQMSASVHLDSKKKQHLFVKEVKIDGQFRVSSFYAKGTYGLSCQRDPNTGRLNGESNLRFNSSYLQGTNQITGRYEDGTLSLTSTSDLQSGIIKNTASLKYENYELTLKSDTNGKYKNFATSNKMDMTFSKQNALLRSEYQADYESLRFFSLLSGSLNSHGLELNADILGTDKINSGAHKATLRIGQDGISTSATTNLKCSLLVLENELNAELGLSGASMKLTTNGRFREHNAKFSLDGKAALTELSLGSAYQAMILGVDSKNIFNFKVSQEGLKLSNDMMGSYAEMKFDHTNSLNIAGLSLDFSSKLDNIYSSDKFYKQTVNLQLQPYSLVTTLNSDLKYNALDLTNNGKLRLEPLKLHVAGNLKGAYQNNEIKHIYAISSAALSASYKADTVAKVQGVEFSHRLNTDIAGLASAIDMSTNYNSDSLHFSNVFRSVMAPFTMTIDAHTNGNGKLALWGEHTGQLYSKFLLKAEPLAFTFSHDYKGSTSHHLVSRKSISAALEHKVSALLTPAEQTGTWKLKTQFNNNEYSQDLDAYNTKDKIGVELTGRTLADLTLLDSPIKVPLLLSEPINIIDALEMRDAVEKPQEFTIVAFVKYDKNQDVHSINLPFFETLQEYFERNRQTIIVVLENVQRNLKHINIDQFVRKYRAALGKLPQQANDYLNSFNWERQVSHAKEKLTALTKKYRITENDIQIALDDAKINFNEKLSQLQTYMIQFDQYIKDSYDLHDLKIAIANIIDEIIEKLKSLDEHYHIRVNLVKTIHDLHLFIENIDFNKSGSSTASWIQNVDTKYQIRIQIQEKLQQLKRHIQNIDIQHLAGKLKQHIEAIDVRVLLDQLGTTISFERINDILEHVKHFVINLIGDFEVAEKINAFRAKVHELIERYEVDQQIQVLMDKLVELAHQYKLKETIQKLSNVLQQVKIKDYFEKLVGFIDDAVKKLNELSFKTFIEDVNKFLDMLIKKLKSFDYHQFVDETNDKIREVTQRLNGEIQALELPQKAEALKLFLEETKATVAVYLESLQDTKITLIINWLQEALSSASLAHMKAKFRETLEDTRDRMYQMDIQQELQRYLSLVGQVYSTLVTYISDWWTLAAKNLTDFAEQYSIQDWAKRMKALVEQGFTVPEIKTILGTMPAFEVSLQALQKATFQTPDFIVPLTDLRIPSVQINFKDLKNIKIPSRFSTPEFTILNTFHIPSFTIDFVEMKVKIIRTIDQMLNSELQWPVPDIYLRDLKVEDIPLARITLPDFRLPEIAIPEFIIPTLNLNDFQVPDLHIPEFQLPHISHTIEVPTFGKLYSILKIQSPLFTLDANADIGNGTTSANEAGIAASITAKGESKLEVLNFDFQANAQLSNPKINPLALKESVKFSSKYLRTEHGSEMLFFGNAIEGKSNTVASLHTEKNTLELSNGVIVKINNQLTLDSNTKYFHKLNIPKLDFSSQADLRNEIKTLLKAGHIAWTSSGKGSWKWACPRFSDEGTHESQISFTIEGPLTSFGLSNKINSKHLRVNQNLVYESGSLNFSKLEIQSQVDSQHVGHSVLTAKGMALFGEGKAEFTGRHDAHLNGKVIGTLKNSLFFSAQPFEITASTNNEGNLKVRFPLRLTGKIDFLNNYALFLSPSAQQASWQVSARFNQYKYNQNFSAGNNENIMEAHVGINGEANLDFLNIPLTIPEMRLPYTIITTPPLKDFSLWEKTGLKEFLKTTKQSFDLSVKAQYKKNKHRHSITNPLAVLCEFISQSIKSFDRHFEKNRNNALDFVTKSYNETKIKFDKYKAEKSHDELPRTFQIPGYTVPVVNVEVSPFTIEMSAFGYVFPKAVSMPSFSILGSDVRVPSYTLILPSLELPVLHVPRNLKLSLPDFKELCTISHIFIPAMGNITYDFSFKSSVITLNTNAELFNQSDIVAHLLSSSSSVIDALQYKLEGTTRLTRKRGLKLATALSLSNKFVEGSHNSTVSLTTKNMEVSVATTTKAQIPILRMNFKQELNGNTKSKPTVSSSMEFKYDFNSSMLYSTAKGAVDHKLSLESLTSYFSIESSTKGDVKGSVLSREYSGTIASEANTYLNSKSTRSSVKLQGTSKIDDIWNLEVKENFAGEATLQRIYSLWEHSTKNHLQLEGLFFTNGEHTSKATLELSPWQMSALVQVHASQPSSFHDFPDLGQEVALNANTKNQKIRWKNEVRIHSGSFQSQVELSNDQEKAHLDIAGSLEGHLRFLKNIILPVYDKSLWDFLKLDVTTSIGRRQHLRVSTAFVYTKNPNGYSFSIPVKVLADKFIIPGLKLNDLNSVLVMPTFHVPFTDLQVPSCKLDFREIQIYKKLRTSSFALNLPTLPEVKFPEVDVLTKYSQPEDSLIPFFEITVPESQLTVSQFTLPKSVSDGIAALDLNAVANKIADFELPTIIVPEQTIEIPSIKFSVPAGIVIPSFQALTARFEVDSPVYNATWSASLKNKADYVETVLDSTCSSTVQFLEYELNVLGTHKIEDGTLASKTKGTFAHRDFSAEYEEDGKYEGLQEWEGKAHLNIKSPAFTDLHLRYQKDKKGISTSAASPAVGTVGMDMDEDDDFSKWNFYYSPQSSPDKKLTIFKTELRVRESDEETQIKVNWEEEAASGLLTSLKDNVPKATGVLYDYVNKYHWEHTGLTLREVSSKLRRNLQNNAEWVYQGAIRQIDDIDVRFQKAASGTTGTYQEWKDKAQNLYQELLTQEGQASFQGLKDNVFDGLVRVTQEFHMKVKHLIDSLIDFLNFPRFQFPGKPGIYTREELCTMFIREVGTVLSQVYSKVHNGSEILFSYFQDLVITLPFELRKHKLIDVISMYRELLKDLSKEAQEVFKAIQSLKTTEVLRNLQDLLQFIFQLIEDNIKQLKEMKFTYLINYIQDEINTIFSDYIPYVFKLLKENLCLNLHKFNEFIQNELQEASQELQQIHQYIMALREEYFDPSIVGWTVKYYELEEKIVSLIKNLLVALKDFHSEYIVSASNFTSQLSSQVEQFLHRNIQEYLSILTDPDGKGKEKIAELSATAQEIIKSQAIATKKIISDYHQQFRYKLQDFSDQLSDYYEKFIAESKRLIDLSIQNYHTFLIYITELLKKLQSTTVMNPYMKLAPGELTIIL
Method for LDL / apoB-100: Circular dichroism. […] Spectra were recorded in the peptidic range (200-260 nm). To increase the signal-to-noise ratio, multiple spectra (three) were averaged for each measurement.

In the case of `CC(C)CCC[C@@H](C)[C@H]1CCC2C(CC=O)C([C@@]3(C)CC[C@H](O)CC3=O)CC[C@@]21C` (stereo partly drawn) [4a, 3β-Hydroxy-5-oxo-5,6-secocholestan-6-al], the IC50 at 18 h turned out to be 10.9 ± 1.6 µM in series [1], 15.5 ± 1.7 µM in series [2], 24.6 ± 3.2 µM in series [3] (human aortic endothelial cells (HAEC)) and 21.9 ± 2.2 µM in series [4] (vascular smooth muscle cells (VSMC)). Moreover, the “random coil of LDL after incubation” value at LDL / apoB-100 was ~39±2%. Besides, at LDL / apoB-100, the “α helical structure of LDL after incubation (loss of secondary structure)” value is given as ~23±5%.

As for `CC(C)CCC[C@@H](C)[C@H]1CCC2C3C(CC[C@@]21C)[C@@]1(C)CC[C@H](O)C[C@@]1(O)[C@@H]3C=O` (stereo partly drawn) [5a, 3β-Hydroxy-5β-hydroxy-B-norcholestane-6β-carboxaldehyde], the IC50 at 18 h in series [1] (WIL2 cells, 18 h, 0-100 μM, read-out: IC50 (cytotoxicity, LDH release)) is 17.7 ± 2.3 µM; in series [2] (Jurkat E6.1 cells, 18 h, 0-100 μM, read-out: IC50 (cytotoxicity, LDH release)) it was 12.6 ± 1.9 µM; in series [3] (HAEC cells), 18.2 ± 1.9 µM; in series [4] (VSMC cells), 29.8 ± 2.8 µM; in series [5] it was 26.1 ± 2.8 µM; in series [6], 13.6 ± 1.1 µM. Also, the “random coil of LDL after incubation” value on LDL / apoB-100 is reported as 32±4%. Further, the “α helical structure of LDL after incubation (loss of secondary structure)” value at LDL / apoB-100 is on record as ~20±2%. Further, the “decrease of the amount that can be extracted from plasma” value in series [7] was “about 5 % per day”.

(Values after US20060217359A1, “Therapeutic procedures” (priority 2003, published 2006).)
